# Tests used:
# murine AHR^d [1] = test: EROD activity in AHR^d-15 cells (rat hepatoma BP8 stably transfected with AHR^d); settings: 5L versus AHR^d-15 cells, 40 hours
# Text: (§1) The 100 “hit compounds” from the primary screen were subsequently screened for their capacity to activate the low-affinity murine AHR^d receptor isoform using the activity of the endogenous Cyp1a1 gene as a readout. To this end, we established a hepatoma cell line that expresses the AHR^d receptor isoform derived from the DBA/2J mouse. An AHR^d-expressing cell line was generated by stably transfecting the AHR^d cDNA into the rat hepatoma AHR-deficient cell line, BP8 [15]. After stable selection with G418, a subclone (AHR^d-15) was analyzed for receptor expression and function. […] To confirm that the AHR^d-15 clone expressed a functional low affinity AHR^d isoform, we examined the receptor-mediated response to the prototype agonists, TCDD and β-naphthoflavone (BNF).
# (§2) To test the ability of the 100 AHR inducers to activate the AHR^d-15 cells, they were treated with each of the compounds at the dose of 1 µM, for 36 hours in 96-well plates.
# (§3) Figure 3 In Vitro dose response curves. A. Rat hepatoma cell lines bearing the murine AHR^d (AHR^d-15) or the rat AHR^b (5L) were incubated with increasing doses of TCDD in 96-well plates. After 40 hours, EROD activity was performed from whole cell lysate. (n = 3). […] (n = 3). C. Same assay as in A, with increasing doses of BNF. (n = 2). […] Following 48 hours, hepatic microsomal proteins were isolated and used for the assessment of EROD activity. Animals were treated in groups of 4. Error bars: S.D.
# (§4) The open reading frame of the AHR^d gene (PL2047) was amplified by PCR using oligos OL5127 (5′-[…]-3′) and OL5128 (5′-[…]-3′). The product was ligated into the pTARGET™ mammalian expression vector (Promega, Madison, WI). The resulting plasmid was transfected into the AHR-deficient cell line, BP8 [15], using Effectene transfection reagent (Qiagen Inc., Valencia, CA). Stable integrants were selected with 6 mg/ml of G418 for 2 weeks, beginning at 48-hours post-transfection. Clones derived from single cells were screened for their response to nanomolar doses of dioxin or micromolar doses of BNF, as measured by ethoxyresorufin O-deethylase (EROD) activity. […] The validated cell line used in these studies was designated line AHR^d-15.
# (§5) High-throughput analysis of EROD activity was assayed by adapting a protocol that was described elsewhere, [63]. Briefly, cells were seeded into 96-well plates at ∼ 60% density and treated with the test compounds for 36 hours. The cells were washed with PBS and lysed with 30 µL water and a cycle of freeze-thaw. To each well, 150 µL of 50 mM Hepes buffer containing 26.7 µM dicumarol and 13.3 µM ethoxyresorufin were added. The samples were incubated at 30°C for 20 minutes, and 50 µL of 0.5 mM β-NADPH were added to initiate the reaction. Fluorescence of the resorufin product was detected using the 544 nm excitation and 590 nm emission wavelength filter set.
# murine AHR^d [2] = target: T1, murine AHR^d (Mus musculus, UniProt P30561, A375V); test: as above
# T1 sequence (P30561 10-848 A375V): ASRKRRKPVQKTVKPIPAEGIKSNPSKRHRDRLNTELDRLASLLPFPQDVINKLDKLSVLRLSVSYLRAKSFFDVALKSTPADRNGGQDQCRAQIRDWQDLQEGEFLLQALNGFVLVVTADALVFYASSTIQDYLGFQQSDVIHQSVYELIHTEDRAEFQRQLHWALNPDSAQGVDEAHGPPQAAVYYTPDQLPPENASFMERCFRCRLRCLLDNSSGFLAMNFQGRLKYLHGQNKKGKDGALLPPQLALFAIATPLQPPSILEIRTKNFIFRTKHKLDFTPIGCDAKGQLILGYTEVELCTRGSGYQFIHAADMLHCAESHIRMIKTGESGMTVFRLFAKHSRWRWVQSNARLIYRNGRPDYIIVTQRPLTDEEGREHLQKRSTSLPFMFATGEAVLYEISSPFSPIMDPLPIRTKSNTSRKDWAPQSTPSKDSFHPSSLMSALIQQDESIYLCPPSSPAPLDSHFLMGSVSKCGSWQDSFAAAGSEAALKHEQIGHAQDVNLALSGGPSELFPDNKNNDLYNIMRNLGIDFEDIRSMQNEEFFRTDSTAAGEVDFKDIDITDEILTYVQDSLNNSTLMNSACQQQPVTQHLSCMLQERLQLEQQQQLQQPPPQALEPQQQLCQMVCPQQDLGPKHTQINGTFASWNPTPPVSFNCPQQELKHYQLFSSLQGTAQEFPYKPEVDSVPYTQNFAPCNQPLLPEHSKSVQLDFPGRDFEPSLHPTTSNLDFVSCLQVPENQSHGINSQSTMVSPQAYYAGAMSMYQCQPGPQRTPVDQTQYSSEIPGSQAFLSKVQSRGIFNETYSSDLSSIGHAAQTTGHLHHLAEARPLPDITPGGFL
# Text: as §1, §2, §3, §4, §5
Structure (SMILES),"cytochrome P450 induction (EROD), comparison of the two cell lines (murine AHR^d [1])",EC50 (murine AHR^d [2]) [nM],"induction of AHR^d-mediated EROD activity (murine AHR^d [2]; AHR^d-15 cells, positive control 2 nM, 36 hours)"
"Cc1cc(C)c(C=C2C(=O)Nc3ccccc32)[nH]1 [SU5416, 3-(3,5-dimethyl-1H-pyrrol-2-ylmethylene)-1,3-dihydro-indole-2-one]",equal potency,,
"Clc1cc2c(cc1Cl)Oc1cc(Cl)c(Cl)cc1O2 [TCDD, 2,3,7,8-tetrachlorodibenzo-p-dioxin]",,~30,greater than 5 fold

# — PMC3435281 (PLoS ONE, 2012)
